Literature values, collected in patent publication US9241502B2, “Animal feed compositions capable of reducing the incidence of fescue toxicosis in mammals” (priority 2005, dated 2016).

Tested on: lactating dairy cattle
Conditions: as a single ingredient

## Vitamin E
  effectiveness against fescue toxicosis: not found to be effective
